Test results from patent US10150760B2, “Compounds for use in preparing heterocyclic triazole agonists of the APJ receptor” (AMGEN INC., priority 2016, dated 2018).

molecular target: human APJ receptor (Homo sapiens (Human), UniProt P35414); experiment: [35S]GTPγS binding assay on membranes from CHO cells stably expressing human APJ receptor; assay type: biochemical; conditions: read-out: Activity hAPJ SPA EC50 IP
In short: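 Membranes from CHO cells stably expressing human APJ incubated with ligand, 0.2 nM [35S]GTPγS and WGA SPA beads in HEPES pH 7.5 with 5 mM MgCl2, 200 mM NaCl, 3 μM GDP, 90 min at RT. Nonspecific binding defined with 100 μM GTPγS; EC50 by non-linear regression.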

human APJ receptor, sequence (P35414 whole entry): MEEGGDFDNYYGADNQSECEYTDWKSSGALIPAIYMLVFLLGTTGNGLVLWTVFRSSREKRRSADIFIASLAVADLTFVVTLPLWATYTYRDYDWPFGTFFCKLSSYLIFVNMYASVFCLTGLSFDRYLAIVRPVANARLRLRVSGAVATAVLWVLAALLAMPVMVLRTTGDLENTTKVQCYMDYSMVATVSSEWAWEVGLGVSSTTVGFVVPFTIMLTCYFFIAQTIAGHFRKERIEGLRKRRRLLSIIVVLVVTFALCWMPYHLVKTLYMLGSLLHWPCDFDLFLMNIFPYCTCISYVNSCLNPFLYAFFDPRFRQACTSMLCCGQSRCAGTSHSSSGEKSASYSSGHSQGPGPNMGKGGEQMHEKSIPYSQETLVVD

| Compound | EC50 [µM] |
| --- | --- |
| COc1cccc(OC)c1-n1c(NS(=O)(=O)[C@@H](C)[C@H](C)c2ncc(Cl)cn2)nnc1[C@H]1CCO1 (mixture of isomers) [Example 142.0, (2S,3R)-3-(5-chloropyrimidin-2-yl)-N-(4-(2,6-dimethoxyphenyl)-5-((R)-oxetan-2-yl)-4H-1,2,4-triazol-3-yl)butane-2-sulfonamide and (2S,3R)-3-(5-chloropyrimidin-2-yl)-N-(4-(2,6-dimethoxyphenyl)-5-((S)-oxetan-2-yl)-4H-1,2,4-triazol-3-yl)butane-2-sulfonamide] | 0.0019 |
| COc1cccc(OC)c1-n1c(NS(=O)(=O)[C@@H](C)[C@H](OC)c2ncc(Cl)cn2)nnc1[C@H]1CCCO1 (single isomer, unassigned) [Example 52.0, (1R,2S)-1-(5-chloropyrimidin-2-yl)-N-(4-(2,6-dimethoxyphenyl)-5-((R)-tetrahydrofuran-2-yl)-4H-1,2,4-triazol-3-yl)-1-methoxypropane-2-sulfonamide or (1R,2S)-1-(5-chloropyrimidin-2-yl)-N-(4-(2,6-dimethoxyphenyl)-5-((S)-tetrahydrofuran-2-yl)-4H-1,2,4-triazol-3-yl)-1-methoxypropane-2-sulfonamide] | 0.02 |
| COc1ncnc(OC)c1-n1c(NS(=O)(=O)[C@@H](C)[C@H](C)c2ncc(Cl)cn2)nnc1[C@@H]1CCCCO1 (single isomer, unassigned) [Example 191.0, (2S,3R)-3-(5-chloropyrimidin-2-yl)-N-(4-(4,6-dimethoxypyrimidin-5-yl)-5-((S)-tetrahydro-2H-pyran-2-yl)-4H-1,2,4-triazol-3-yl)butane-2-sulfonamide or (2S,3R)-3-(5-chloropyrimidin-2-yl)-N-(4-(4,6-dimethoxypyrimidin-5-yl)-5-((R)-tetrahydro-2H-pyran-2-yl)-4H-1,2,4-triazol-3-yl)butane-2-sulofnamide] | 0.0041 |
| (2S,3R)-N-(4-((1r,2R,6S)-2,6-dimethoxycyclohexyl)-5-((3S)-tetrahydro-3-furanyl)-4H-1,2,4-triazol-3-yl)-3-(5-methyl-2-pyrimidinyl)-2-butanesulfonamide or (2S,3R)-N-(4-((1r,2R,6S)-2,6-dimethoxycyclohexyl)-5-((3R)-tetrahydro-3-furanyl)-4H-1,2,4-triazol-3-yl)-3-(5-methyl-2-pyrimidinyl)-2-butanesulfonamide [Example 4.0] | 0.89 |
| COc1cccc(OC)c1-n1c(NS(=O)(=O)[C@@H](C)[C@H](C)c2ccc(Cl)cn2)nnc1[C@@H]1COCCO1 (single isomer, unassigned) [Example 268.0, (2S,3R)-3-(5-chloropyridin-2-yl)-N-(4-(2,6-dimethoxyphenyl)-5-((R)-1,4-dioxan-2-yl)-4H-1,2,4-triazol-3-yl)butane-2-sulfonamide or (2S,3R)-3-(5-chloropyridin-2-yl)-N-(4-(2,6-dimethoxyphenyl)-5-((S)-1,4-dioxan-2-yl)-4H-1,2,4-triazol-3-yl)butane-2-sulfonamide] | 0.0019 |
| (1R,2S)-1-(5-chloropyridin-2-yl)-N-(4-(2,6-dimethoxyphenyl)-5-((R)-1,4-dioxan-2-yl)-4H-1,2,4-triazol-3-yl)-1-methoxypropane-2-sulfonamide or (1R,2S)-1-(5-chloropyridin-2-yl)-N-(4-(2,6-dimethoxyphenyl)-5-((S)-1,4-dioxan-2-yl)-4H-1,2,4-triazol-3-yl)-1-methoxypropane-2-sulfonamide [Example 264.0] | 0.0012 |
| (1S,2S)-N-(4-(1,3-dimethoxy-2-propanyl)-5-((2R,5R)-5-methyltetrahydro-2-furanyl)-4H-1,2,4-triazol-3-yl)-1-(5-methyl-2-pyrimidinyl)-1-(2-propanyloxy)-2-propanesulfonamide or (1S,2S)-N-(4-(1,3-dimethoxy-2-propanyl)-5-((2S,5S)-5-methyltetrahydro-2-furanyl)-4H-1,2,4-triazol-3-yl)-1-(5-methyl-2-pyrimidinyl)-1-(2-propanyloxy)-2-propanesulfonamide [Example 358.0] | 0.43 |
| COc1cccc(OC)c1-n1c(NS(=O)(=O)[C@@H](C)[C@H](C)c2ncc(Cl)cn2)nnc1[C@@H]1CCO[C@@H]1C (single isomer, unassigned) [Example 119.0, (2S,3R)-3-(5-chloropyrimidin-2-yl)-N-(4-(2,6-dimethoxyphenyl)-5-((2R,3S)-2-methyltetrahydrofuran-3-yl)-4H-1,2,4-triazol-3-yl)butane-2-sulfonamide or (2S,3R)-3-(5-chloropyrimidin-2-yl)-N-(4-(2,6-dimethoxyphenyl)-5-((2S,3R)-2-methyltetrahydrofuran-3-yl)-4H-1,2,4-triazol-3-yl)butane-2-sulfonamide] | 0.16 |
| (1S,2S)-1-(5-chloro-2-pyrimidinyl)-N-(4-cyclopropyl-5-((2S,5S)-5-methyltetrahydro-2-furanyl)-4H-1,2,4-triazol-3-yl)-1-(2-propanyloxy)-2-propanesulfonamide or (1S,2S)-1-(5-chloro-2-pyrimidinyl)-N-(4-cyclopropyl-5-((2R,5R)-5-methyltetrahydro-2-furanyl)-4H-1,2,4-triazol-3-yl)-1-(2-propanyloxy)-2-propanesulfonamide [Example 352.0] | 1.49 |
| (1R,2)S-1-(5-chloropyrimidin-2-yl)-N-(5-((S)-5,5-dimethyltetrahydrofuran-2-yl)-4-(tetrahydro-2H-pyran-4-yl)-4H-1,2,4-triazol-3-yl)-1-methoxypropane-2-sulfonamide or (1R,2S)-1-(5-chloropyrimidin-2-yl)-N-(5-((R)-5,5-dimethyltetrahydrofuran-2-yl)-4-(tetrahydro-2H-pyran-4-yl)-4H-1,2,4-triazol-3-yl)-1-methoxypropane-2-sulfonamide [Example 222.0] | 0.74 |
| (1R,2S)-1-(5-chloropyrimidin-2-yl)-N-(4-(2,6-dimethoxyphenyl)-5-((R)-1,1-dioxidotetrahydrothiophen-3-yl)-4H-1,2,4-triazol-3-yl)-1-methoxypropane-2-sulfonamide or (1R,2S)-1-(5-chloropyrimidin-2-yl)-N-(4-(2,6-dimethoxyphenyl)-5-((S)-1,1-dioxidotetrahydrothiophen-3-yl)-4H-1,2,4-triazol-3-yl)-1-methoxypropane-2-sulfonamide [Example 187.0] | 0.35 |
| (2S,3R)-N-(4-(1,3-dimethoxy-2-propanyl)-5-((2R,5R)-5-methyltetrahydro-2-furanyl)-4H-1,2,4-triazol-3-yl)-3-(5-methoxy-2-pyrimidinyl)-2-butanesulfonamide or (2S,3R)-N-(4-(1,3-dimethoxy-2-propanyl)-5-((2S,5S)-5-methyltetrahydro-2-furanyl)-4H-1,2,4-triazol-3-yl)-3-(5-methoxy-2-pyrimidinyl)-2-butanesulfonamide [Example 371.0] | 0.015 |
| COc1cccc(OC)c1-n1c(NS(=O)(=O)[C@@H](C)[C@H](C)c2ncc(Cl)cn2)nnc1[C@H]1OCC[C@H]1C (single isomer, unassigned) [Example 76.0, (2S,3R)-3-(5-chloropyrimidin-2-yl)-N-(4-(2,6-dimethoxyphenyl)-5-((2R,3S)-3-methyltetrahydrofuran-2-yl)-4H-1,2,4-triazol-3-yl)butane-2-sulfonamide or (2S,3R)-3-(5-chloropyrimidin-2-yl)-N-(4-(2,6-dimethoxyphenyl)-5-((2S,3R)-3-methyltetrahydrofuran-2-yl)-4H-1,2,4-triazol-3-yl)butane-2-sulfonamide] | 0.0014 |
| COc1ncnc(OC)c1-n1c(NS(=O)(=O)[C@@H](C)[C@H](C)c2ncc(Cl)cn2)nnc1[C@@H]1COCCO1 (single isomer, unassigned) [Example 196.0, (2S,3R)-3-(5-chloropyrimidin-2-yl)-N-(4-(4,6-dimethoxypyrimidin-5-yl)-5-((R)-1,4-dioxan-2-yl)-4H-1,2,4-triazol-3-yl)butane-2-sulfonamide or (2S,3R)-3-(5-chloropyrimidin-2-yl)-N-(4-(4,6-dimethoxypyrimidin-5-yl)-5-((S)-1,4-dioxan-2-yl)-4H-1,2,4-triazol-3-yl)butane-2-sulfonamide] | 0.13 |
| COc1ncnc(OC)c1-n1c(NS(=O)(=O)[C@@H](C)[C@H](OC)c2ncc(Cl)cn2)nnc1[C@H]1CCCO1 (single isomer, unassigned) [Example 79.0, (1R,2S)-1-(5-chloropyrimidin-2-yl)-N-(4-(4,6-dimethoxypyrimidin-5-yl)-5-((S)-tetrahydrofuran-2-yl)-4H-1,2,4-triazol-3-yl)-1-methoxypropane-2-sulfonamide or (1R,2S)-1-(5-chloropyrimidin-2-yl)-N-(4-(4,6-dimethoxypyrimidin-5-yl)-5-((R)-tetrahydrofuran-2-yl)-4H-1,2,4-triazol-3-yl)-1-methoxypropane-2-sulfonamide] | 0.11 |
| COc1cccc(OC)c1-n1c(NS(=O)(=O)[C@@H](C)[C@@H](OC(C)C)c2ncc(Cl)cn2)nnc1[C@H]1CCC(C)(C)O1 (single isomer, unassigned) [Example 413.0, (1S,2S)-1-(5-chloro-2-pyrimidinyl)-N-(4-(2,6-dimethoxyphenyl)-5-((2R)-5,5-dimethyltetrahydro-2-furanyl)-4H-1,2,4-triazol-3-yl)-1-(2-propanyloxy)-2-propanesulfonamide or (1S,2S)-1-(5-chloro-2-pyrimidinyl)-N-(4-(2,6-dimethoxyphenyl)-5-((2S)-5,5-dimethyltetrahydro-2-furanyl)-4H-1,2,4-triazol-3-yl)-1-(2-propanyloxy)-2-propanesulfonamide] | 0.0074 |
